Laboratory results published in paper PMC9917550, “Discovery of Novel Thiazolidinedione-Derivatives with Multi-Modal Antidiabetic Activities In Vitro and In Silico” (International Journal of Molecular Sciences, 2023).

Experiments:
α-amylase = molecular target: T1, α-amylase (Sus scrofa, UniProt P00690); assay: α-amylase inhibition assay; format: biochemical; conditions: 10-50 µg/mL, versus control, p < 0.05
T1 sequence (P00690 16-511): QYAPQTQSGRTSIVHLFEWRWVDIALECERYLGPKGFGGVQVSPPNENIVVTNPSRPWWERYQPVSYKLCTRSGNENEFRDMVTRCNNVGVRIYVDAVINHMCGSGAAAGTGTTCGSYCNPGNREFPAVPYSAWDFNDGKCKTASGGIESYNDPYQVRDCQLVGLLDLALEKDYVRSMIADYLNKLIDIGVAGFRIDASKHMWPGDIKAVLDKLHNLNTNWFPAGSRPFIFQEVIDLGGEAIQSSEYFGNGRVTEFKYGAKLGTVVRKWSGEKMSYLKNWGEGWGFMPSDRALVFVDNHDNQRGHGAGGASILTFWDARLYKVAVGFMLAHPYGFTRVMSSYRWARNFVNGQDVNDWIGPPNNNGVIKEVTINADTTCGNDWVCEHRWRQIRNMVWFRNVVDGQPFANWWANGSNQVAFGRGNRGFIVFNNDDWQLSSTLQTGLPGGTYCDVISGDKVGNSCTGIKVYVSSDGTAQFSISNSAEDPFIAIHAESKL
Protocol: The α-amylase inhibitory activity was determined using the method described by the Worthington Enzyme Manual with slight modifications. The TZD derivatives were assayed at 10, 20, 30, 40, and 50 µg/mL. […] The sodium phosphate buffer was used as a blank. The inhibitory activity was calculated according to the equation:
Inhibition (%) = ((Acontrol − Asample)/Acontrol) × 100%, where Acontrol was the absorbance of the control (without the inhibitor); Asample was the absorbance in the presence of TZD derivatives.

α-glucosidase [1] = molecular target: T2, α-glucosidase (Saccharomyces cerevisiae, UniProt P53341); format: biochemical
T2 sequence (P53341 whole entry): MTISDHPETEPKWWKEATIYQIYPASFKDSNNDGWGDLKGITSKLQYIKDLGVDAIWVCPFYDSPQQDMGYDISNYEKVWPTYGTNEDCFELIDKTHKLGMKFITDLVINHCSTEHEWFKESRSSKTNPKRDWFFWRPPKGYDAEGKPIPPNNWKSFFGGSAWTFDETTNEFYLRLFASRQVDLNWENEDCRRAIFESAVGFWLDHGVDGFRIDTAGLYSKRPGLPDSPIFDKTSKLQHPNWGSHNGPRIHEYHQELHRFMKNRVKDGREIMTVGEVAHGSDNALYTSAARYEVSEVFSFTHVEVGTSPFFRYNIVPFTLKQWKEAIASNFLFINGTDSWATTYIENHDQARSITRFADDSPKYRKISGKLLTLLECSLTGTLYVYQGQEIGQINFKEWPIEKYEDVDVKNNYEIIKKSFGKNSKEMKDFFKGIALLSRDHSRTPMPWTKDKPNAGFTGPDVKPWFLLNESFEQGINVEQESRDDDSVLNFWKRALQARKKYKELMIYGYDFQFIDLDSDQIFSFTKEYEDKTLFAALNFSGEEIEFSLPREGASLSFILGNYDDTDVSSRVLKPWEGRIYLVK

aldose reductase = aldose reductase (Homo sapiens, UniProt P15121); assay: Aldose reductase inhibition assay; format: biochemical; conditions: for aldose reductase inhibitory activity (in words): 10-50 µg/mL, versus control, p < 0.05; for IC50: read-out: IC50 for the Inhibitory Activity Assays, AR (converted)
Protocol: The aldose reductase (AR) inhibition assay was performed according to the method described by Kazeem et al. with minor modifications. All the TZD derivatives were assayed at 10, 20, 30, 40, and 50 µg/mL. […] The absolute standard contained all the reagents used except for the inhibitor compounds. The aldose reductase inhibition activity was calculated as a percentage inhibition from:
(§1) % Inhibition = [(∆Abscontrol − ∆Abssample)/∆Abscontrol] × 100%, where ∆Abs is the change is absorbance.

DPP-4 = molecular target: T3, DPP-4 (Homo sapiens, UniProt P27487); assay: Dipeptidyl peptidase-4 inhibition assay (DPP-4 Inhibitor Screening Kit); format: biochemical; conditions: for DPP-4 inhibitory activity (in words): 10-50 µg/mL, versus control; for IC50: read-out: IC50 for the Inhibitory Activity Assays, DPP-4 (converted); for DPP-4 inhibition: 10, 20, 30, 40 and 50 µg/mL
T3 construct: purchased Sigma-Aldrich MAK203
T3 sequence (P27487 whole entry, species assumed): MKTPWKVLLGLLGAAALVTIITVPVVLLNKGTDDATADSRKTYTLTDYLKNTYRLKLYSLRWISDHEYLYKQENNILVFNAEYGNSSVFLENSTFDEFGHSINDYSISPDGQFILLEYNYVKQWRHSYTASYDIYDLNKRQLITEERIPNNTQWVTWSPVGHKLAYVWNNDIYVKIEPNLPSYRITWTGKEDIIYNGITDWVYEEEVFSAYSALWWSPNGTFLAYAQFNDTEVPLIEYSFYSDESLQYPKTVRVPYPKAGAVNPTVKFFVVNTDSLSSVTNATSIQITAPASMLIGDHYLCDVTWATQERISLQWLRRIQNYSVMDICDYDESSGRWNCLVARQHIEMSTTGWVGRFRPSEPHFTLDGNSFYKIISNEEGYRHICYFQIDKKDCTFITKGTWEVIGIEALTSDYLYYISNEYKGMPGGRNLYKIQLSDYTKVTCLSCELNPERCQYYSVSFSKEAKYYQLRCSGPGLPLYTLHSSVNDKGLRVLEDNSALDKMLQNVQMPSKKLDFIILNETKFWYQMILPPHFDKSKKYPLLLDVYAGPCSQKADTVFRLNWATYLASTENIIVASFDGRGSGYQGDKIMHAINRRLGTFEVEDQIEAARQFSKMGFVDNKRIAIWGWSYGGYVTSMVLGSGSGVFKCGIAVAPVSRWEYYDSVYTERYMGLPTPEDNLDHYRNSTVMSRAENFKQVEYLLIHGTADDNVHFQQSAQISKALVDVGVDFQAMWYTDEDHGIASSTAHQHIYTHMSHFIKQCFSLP
Protocol: This assay was performed according to the DPP-4 Inhibitor Screening Kit (catalogue number: MAK203) product information (Sigma-Aldrich.com) with minor modifications to the volumes to suit the 96-well plate assay.

[2] = molecular target: T4, protein tyrosine phosphatase-1B (PTP-1B) (Homo sapiens, UniProt P18031); assay: Protein tyrosine phosphatase-1B inhibition assay; format: biochemical; conditions: for PTP-1B inhibitory activity (in words): 10-50 µg/mL, versus control; for IC50: read-out: IC50 for the Inhibitory Activity Assays, PTP-1B (converted)
T4 sequence (P18031 1-435): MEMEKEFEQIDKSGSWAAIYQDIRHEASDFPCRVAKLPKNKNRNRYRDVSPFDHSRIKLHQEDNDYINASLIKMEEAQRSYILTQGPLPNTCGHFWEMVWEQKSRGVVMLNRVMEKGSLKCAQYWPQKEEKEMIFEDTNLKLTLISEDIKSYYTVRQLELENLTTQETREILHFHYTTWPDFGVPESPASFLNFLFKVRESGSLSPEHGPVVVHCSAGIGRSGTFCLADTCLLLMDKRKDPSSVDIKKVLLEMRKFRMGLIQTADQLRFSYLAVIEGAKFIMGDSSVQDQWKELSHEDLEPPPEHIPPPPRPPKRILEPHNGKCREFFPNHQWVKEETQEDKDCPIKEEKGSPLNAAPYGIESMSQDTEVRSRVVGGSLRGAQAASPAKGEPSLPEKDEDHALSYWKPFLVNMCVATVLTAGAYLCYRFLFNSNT
Protocol: The protein tyrosine phosphatase-1B (PTP-1B) inhibition assay was performed according to the method described by Song et al. with some modifications. […] The absolute control contained all the reagents used except the inhibitor compounds. The inhibition activity was calculated using:
as §1

liver cells (HEP-G2) = assay: Glucose uptake in liver cells; format: cell-based; conditions: 25, 50 and 100 µg/mL, 24 h, versus control
Protocol: HEPG-2 liver cells were cultured in MEME supplemented with pen/strep (1%) and FBS (10%) in a […] under tissue culture conditions. Upon confluency (80%), cells were trypsinized and seeded into the 96-well plates. Upon confluency, the cell preparations were exposed to different concentrations (25, 50, and 100 µg/mL) of TZDDs, and a media glucose reading was taken before incubation (time = 0). Thereafter, the plates containing cells and treatments were incubated for 24 h under tissue culture conditions. The non-treated cells and insulin treated cells served as absolute and positive controls, respectively. After a 24 h incubation, the medium glucose was taken using a glucometer. The percentage glucose uptake was calculated as follows:
Glucose uptake (%) = (T24/T0) × 100

α-glucosidase [3] = molecular target: T2, α-glucosidase; assay: Mode of inhibition of α-glucosidase (Michaelis-Menten, Lineweaver-Burk); format: biochemical; conditions: substrate pNPG
Protocol: The Ki values were calculated with GraphPad Prism 9.2.0. (332) by plotting the reciprocal of maximum velocity (1/Vmax) (y-axis) against the derivative concentrations (x-axis). The types of inhibition parameters were all calculated with GraphPad Prism 9.2.0. Briefly, 30 µL of α-glucosidase enzyme (0.5 IU/mL) was dissolved in the 0.02 M phosphate buffer (pH 6.9), and then was pre-incubated at 37 °C with the above-mentioned derivative (50 µL) in a 96-well plate, for 5 min. In sequence, pNPG (0.125, 0.250, 0.500, 0.750, 1.000, 1.500, 2.000, 2.500, and 5.000 mM) was added and incubated in the reaction mixture at 37 °C for 30 min.

Compound	α-amylase inhibitory activity (in words) (α-amylase)	α-glucosidase inhibitory activity (in words) (α-glucosidase [1])	aldose reductase inhibitory activity (in words) (aldose reductase)	DPP-4 inhibitory activity (in words) (DPP-4)	IC50 (DPP-4) [µM]	IC50 (aldose reductase) [µM]	IC50 for the Inhibitory Activity Assays, PTP-1B [2]	PTP-1B inhibitory activity (in words) [2]	DPP-4 inhibition (DPP-4) [%]	IC50 [2] [µM]	Effect on glucose uptake (liver cells (HEP-G2))	Vmax (α-glucosidase [3]; TZDD3 at 60 µg/mL)	Vmax (α-glucosidase [3]; TZDD3 at 120 µg/mL)
C[C@H]1O[C@H](O[C@H]2[C@H](O)[C@@H](O)[C@@H](O[C@H]3[C@H](O)[C@@H](O)C(O)O[C@@H]3CO)O[C@@H]2CO)[C@H](O)[C@@H](O)[C@@H]1N[C@H]1C=C(CO)[C@@H](O)[C@H](O)[C@H]1O (stereo partly drawn) [Acarbose, reference compound]	significant (p < 0.05) inhibitory activity	significant (p < 0.05) inhibitory activity	–	–	–	–	–	–	–	–	–	–	–
O=c1c(O)c(-c2ccc(O)c(O)c2)oc2cc(O)cc(O)c12 [Quercetin, reference compound]	–	–	significant (p < 0.05) inhibitory activity	–	–	–	–	–	–	–	–	–	–
COc1cc(OC)c(/C=C2/SC(=O)N(CC(=O)N3CCN(c4ccccc4)CC3)C2=O)c(OC)c1 [TZDD1, (E)-5-(2,4,6-trimethoxybenzylidene)-3-(2-oxo-2-(4-phenylpiperazin-1-yl)ethyl)thiazolidine-2,4-dione]	showed inhibitory activity	–	concentration-dependent inhibitory activity	very weak inhibitory activity	147	55.3	unstable	weak inhibitory activity	–	–	–	–	–
Cc1cc(/C=C2\SC(=O)N(CC(=O)N3CCCC3)C2=O)c(C)n1-c1ccccc1 [TZDD2, (Z)-5-((2,5-Dimethyl-1phenyl-1H-pyrrol-3-yl)methylene)-3-(2-oxo-2-(pyrrolidin-1-yl)ethyl)thiazolidine-2,4-dione]	showed inhibitory activity	–	–	relatively higher activity	78	201	–	weak inhibitory activity	≥ 20	334	increase glucose uptake	–	–
Cc1cc(/C=C2\SC(=O)N(CC(=O)O)C2=O)c(C)n1-c1ccccc1 [TZDD3, (Z)-2-(5-((2,5-Dimethyl-1-phenyl-1H-pyrrol-3-yl)methylene)-2,4-dioxothiazolidin-3-yl)acetic Acid]	concentration-dependent inhibitory activity	–	decreasing inhibition activity	very weak inhibitory activity	213	161	unstable	–	–	–	–	59.43	32.76
Cc1cc(/C=C2/S/C(=N\c3ccccc3)NC2=O)c(C)n1-c1ccccc1 [TZDD4, (2Z,5E)-5-((2,5-dimethyl-1-phenyl-1H-pyrrol-3-yl)methylene)-2-(phenylimino)thiazolidin-4-one]	showed inhibitory activity	–	–	–	192	98.5	–	weak inhibitory activity	≥ 20	693	–	–	–
insulin	–	–	–	–	–	–	–	–	–	–	enhanced glucose uptake	–	–
